The subject of data set [1] is paracetamol intoxicated mice. Description: Ki-67 staining of liver tissue (cell proliferation). The format is in vivo, mice (C57BL/6). The settings on record: 4 mg paracetamol alone. The protocol:
(§1) Briefly, necrosis staining was as follows: sections were first de-paraffinized and then were incubated with rabbit polyclonal IgG. Sections were then incubated with secondary antibody using the MACH 3 Rabbit HRP Polymer Detection and then dehydrated, cleared and mounted in synthetic resin. For color detection, DAB (3,3′-diaminobenzidine) was applied, followed by counterstaining Quantification of necrosis was carried out by the Ariol SL-50 system (Applied Imaging) on microscope slides. Nitrotyrosine and Ki-67 immunostaining staining was performed similarly, using a rabbit polyclonal anti-nitrotyrosine antibody (Abcam) or an anti-Ki-67 antibody (DAKO).

Data set [2] deals with paracetamol intoxicated mice. The data set is described as follows: Nitrotyrosine staining of liver tissue (oxidative stress). Particulars: 4 mg paracetamol alone. The format is in vivo, mice (C57BL/6). The protocol:
as §1

The text below walks through data of US9993497B2, “Use of alginate compositions in preventing or reducing liver damage caused by a hepatotoxic agent” (HADASIT MEDICAL RESEARCH SERVICES AND DEVELOPMENT LTD., priority 2012, dated 2018).

Molecules are shown by their SMILES.

`CC(=O)Nc1ccc(O)cc1` [paracetamol, N-acetyl-p-aminophenol]: the “Cell proliferation in the liver (Ki-67 staining)” value in data set [1] is “widespread cell proliferation in the liver”. For the same compound, the “Nitrotyrosine staining in liver” value in data set [2] is recorded as “extensive centrilobular nitrotyrosine staining”.
